Reference: US20240016781A1, “TREATMENT OF KRAS MUTANT CANCERS” (MEI Pharma, Inc., priority 2020, published 2024)
Read-outs that look alike come from different tables or passages of the source.

Columns and labels:
Experiment in all cases: 72-hour CellTiter-Glo 2.0 growth inhibition screen (single agent, 9x9 combination dose matrix);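 on Best CI Level: inhibition effect level at which the best CI was calculated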
Format in all cases: cell-based
HCC44 = conditions: for EC50: HCC44, 72 h
HPAF-II = tested on: HPAF-II;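 on Best CI Level: inhibition effect level at which the best CI was calculated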
TOV-21G = tested on: TOV-21G;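 on Best CI Level: inhibition effect level at which the best CI was calculated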
HCC1171 = tested on: HCC1171;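 on Best CI Level: inhibition effect level at which the best CI was calculated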
NCI-H358 = conditions: for EC50: NCI-H358, 72 h
[1] = HCC44 (KRAS G12C), enhancer + MEI-522 (Voruciclib), 72 h;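 on Best CI Level: inhibition effect level at which the best CI was calculated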
[2] = Homo sapiens, HCC44, Lung, Additional Single Agent Responses (inhibition, % I), 72 h
[3] = Homo sapiens, HCC44, Lung, growth inhibition (GI) curve, single agent, 72 h
[4] = enhancer combined with MEI-522 (Voruciclib), HCC44 (Lung), 72 hours, inhibition data
[5] = HPAF-II (KRAS G12D), enhancer + MEI-522 (Voruciclib), 72 h;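 on Best CI Level: inhibition effect level at which the best CI was calculated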
[6] = enhancer combined with MEI-522 (Voruciclib), HPAF-II (Pancreas), 72 hours, inhibition data
[7] = TOV-21G (KRAS G13C), enhancer + MEI-522 (Voruciclib), 72 h;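 on Best CI Level: inhibition effect level at which the best CI was calculated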
[8] = enhancer combined with MEI-522 (Voruciclib), TOV-21G (Ovary), 72 hours, inhibition data
[9] = HCC1171 (KRAS G12C), enhancer + MEI-522 (Voruciclib), 72 h;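 on Best CI Level: inhibition effect level at which the best CI was calculated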
[10] = HCC1171, Lung, Additional Single Agent Responses (inhibition, % I), 72 h
[11] = enhancer combined with MEI-522 (Voruciclib), HCC1171 (Lung), 72 hours, inhibition data
[12] = NCl-H358 (KRAS G12C), enhancer + MEI-522 (Voruciclib), 72 h
[13] = enhancer combined with MEI-522 (Voruciclib), NCl-H358 (Lung), 72 hours, inhibition data

CN1CCN(c2ccc(OC(F)(F)F)c(Nc3ncc4c(n3)-c3c(c(C(N)=O)nn3CCO)CC4)c2)CC1 [Onvansertib]
Best CI (HCC44; [1]): 0.65
Bliss Volume (HCC44; [1]): 4.26
HSA volume (HCC44; [1]): 1.33
Loewe Volume (HCC44; [1]): 0.16
Synergy Score (HCC44; [1]): 3.96
Response Area (HCC44; HCC44, Lung, Additional Single Agent Responses (inhibition, % I), 72 h): 3.83
Response Area (HCC44; HCC44, Lung, growth inhibition (GI), AUC, single agent, 72 h): 5.16
EC50 (HCC44; [2]): 18.5 nM
EC50 (HCC44; [3]): 22 nM
IC50 (HCC44; [2]): 25.3 nM
Emax (HCC44; Homo sapiens, HCC44, Lung, Additional Single Agent Responses, 72 h, read-out: Max Response (% I)): 81%
GI50 (HCC44; [3]): 18.7 nM
Emax (HCC44; Homo sapiens, HCC44, Lung, growth inhibition (GI), single agent, 72 h, read-out: Max Response (% GI)): 112%
Best CI (HCC44; [4]): 0.80
Bliss Volume (HCC44; [4]): −0.85
HSA volume (HCC44; [4]): 0.68
Loewe Volume (HCC44; [4]): −0.34
Synergy Score (HCC44; [4]): 0.67
Best CI Level (HCC44; enhancer combined with MEI-522 (Voruciclib), HCC44 (Lung), 72 hours, inhibition data, unit assumed): 20%
Best CI (HPAF-II; [5]): 0.70
Bliss Volume (HPAF-II; [5]): −0.18
HSA volume (HPAF-II; [5]): 0.48
Loewe Volume (HPAF-II; [5]): −0.22
Synergy Score (HPAF-II; [5]): 1.29
Response Area (HPAF-II; HPAF-II, Pancreas, Additional Single Agent Responses (inhibition, % I), 72 h): 2.97
Response Area (HPAF-II; HPAF-II, Pancreas, growth inhibition (GI), AUC, single agent, 72 h): 3.98
EC50 (HPAF-II; Homo sapiens, HPAF-II, 72 h, Pancreas, Additional Single Agent Responses (inhibition, % I)): 20.9 nM
EC50 (HPAF-II; Homo sapiens, HPAF-II, 72 h, Pancreas, growth inhibition (GI) curve, single agent): 21 nM
IC50 (HPAF-II; Homo sapiens, HPAF-II, Pancreas, Additional Single Agent Responses (inhibition, % I), 72 h): 35.9 nM
Emax (HPAF-II; Homo sapiens, HPAF-II, Pancreas, Additional Single Agent Responses, 72 h, read-out: Max Response (% I)): 65%
GI50 (HPAF-II; Homo sapiens, HPAF-II, Pancreas, growth inhibition (GI) curve, single agent, 72 h): 24.2 nM
Emax (HPAF-II; Homo sapiens, HPAF-II, Pancreas, growth inhibition (GI), single agent, 72 h, read-out: Max Response (% GI)): 87%
Best CI (HPAF-II; [6]): 0.85
Bliss Volume (HPAF-II; [6]): −1.20
HSA volume (HPAF-II; [6]): 0.37
Loewe Volume (HPAF-II; [6]): −0.12
Synergy Score (HPAF-II; [6]): 0.74
Best CI Level (HPAF-II; enhancer combined with MEI-522 (Voruciclib), HPAF-II (Pancreas), 72 hours, inhibition data, unit assumed): 20%
EC50 (TOV-21G; Homo sapiens, TOV21G, 72 h, TOV-21G, Ovary, Additional Single Agent Responses (inhibition, % I)): 28.1 nM
EC50 (TOV-21G; Homo sapiens, TOV21G, 72 h, TOV-21G, Ovary, growth inhibition (GI) curve, single agent): 34.2 nM
IC50 (TOV-21G; Homo sapiens, TOV21G, TOV-21G, Ovary, Additional Single Agent Responses (inhibition, % I), 72 h): 31.6 nM
Emax (TOV-21G; Homo sapiens, TOV21G, TOV-21G, Ovary, Additional Single Agent Responses, 72 h, read-out: Max Response (% I)): 86%
GI50 (TOV-21G; Homo sapiens, TOV21G, TOV-21G, Ovary, growth inhibition (GI) curve, single agent, 72 h): 26.5 nM
Emax (TOV-21G; Homo sapiens, TOV21G, TOV-21G, Ovary, growth inhibition (GI), single agent, 72 h, read-out: Max Response (% GI)): 143%
Best CI (TOV-21G; [7]): 0.40
Bliss Volume (TOV-21G; [7]): 5.55
HSA volume (TOV-21G; [7]): −0.24
Loewe Volume (TOV-21G; [7]): −0.71
Synergy Score (TOV-21G; [7]): 1.56
Response Area (TOV-21G; TOV-21G, Ovary, Additional Single Agent Responses (inhibition, % I), 72 h): 3.84
Response Area (TOV-21G; TOV-21G, Ovary, growth inhibition (GI), AUC, single agent, 72 h): 6.09
Best CI (TOV-21G; [8]): 0.56
Best CI Level (TOV-21G; [8]): 30
Bliss Volume (TOV-21G; [8]): 0.52
HSA volume (TOV-21G; [8]): 0.33
Loewe Volume (TOV-21G; [8]): 0.43
Synergy Score (TOV-21G; [8]): 0.98
Best CI (HCC1171; [9]): 1.01
Bliss Volume (HCC1171; [9]): −2.83
HSA volume (HCC1171; [9]): −2.66
Loewe Volume (HCC1171; [9]): −1.72
Synergy Score (HCC1171; [9]): 1.86
EC50 (HCC1171; [10]): 15.5 nM
Response Area (HCC1171; [10]): 1.75
Emax (HCC1171; HCC1171, Lung, Additional Single Agent Responses, 72 h, read-out: Max Response (% I)): 46%
GI50 (HCC1171; HCC1171, Lung, growth inhibition (GI) curve, single agent, 72 h): 33 nM
Response Area (HCC1171; HCC1171, Lung, growth inhibition (GI), AUC, single agent, 72 h): 3.02
Emax (HCC1171; HCC1171, Lung, growth inhibition (GI), single agent, 72 h, read-out: Max Response (% GI)): 81%
Best CI (HCC1171; [11]): 0.62
Bliss Volume (HCC1171; [11]): −3.14
HSA volume (HCC1171; [11]): −1.61
Loewe Volume (HCC1171; [11]): −1.03
Synergy Score (HCC1171; [11]): 0.59
Best CI Level (HCC1171; enhancer combined with MEI-522 (Voruciclib), HCC1171 (Lung), 72 hours, inhibition data, unit assumed): 50%
EC50 (NCI-H358; Homo sapiens, NCl-H358, Lung, Additional Single Agent Responses (inhibition, % I), 72 h): 16.7 nM
EC50 (NCI-H358; Homo sapiens, NCl-H358, Lung, growth inhibition (GI) curve, single agent, 72 h): 18.2 nM
IC50 (NCI-H358; Homo sapiens, NCI-H358, NCl-H358, Lung, Additional Single Agent Responses (inhibition, % I), 72 h): 20.3 nM
Emax (NCI-H358; Homo sapiens, NCI-H358, NCl-H358, Lung, Additional Single Agent Responses, 72 h, read-out: Max Response (% I)): 82%
GI50 (NCI-H358; Homo sapiens, NCI-H358, NCl-H358, Lung, growth inhibition (GI) curve, single agent, 72 h): 18.3 nM
Emax (NCI-H358; Homo sapiens, NCI-H358, NCl-H358, Lung, growth inhibition (GI), single agent, 72 h, read-out: Max Response (% GI)): 127%
Best CI (NCI-H358; [12]): 0.27
Bliss Volume (NCI-H358; [12]): −1.00
HSA volume (NCI-H358; [12]): −5.36
Loewe Volume (NCI-H358; [12]): −3.73
Synergy Score (NCI-H358; [12]): 6.46
Response Area (NCI-H358; NCl-H358, Lung, Additional Single Agent Responses (inhibition, % I), 72 h): 3.36
Response Area (NCI-H358; NCl-H358, Lung, growth inhibition (GI), AUC, single agent, 72 h): 4.69
Best CI (NCI-H358; [13]): 0.38
Best CI Level (NCI-H358; [13]): 75
Bliss Volume (NCI-H358; [13]): −3.69
HSA volume (NCI-H358; [13]): −3.63
Loewe Volume (NCI-H358; [13]): −3.23
Synergy Score (NCI-H358; [13]): 1.36
